# Experimental data taken from article PMC5443055 (Human Vaccines & Immunotherapeutics, 2014).
# System: splenocytes of immunized HLA DR3 tg mice
# Test: Th1/Th2/Th17 cytokine bead array
# Format: cell-based, mouse (HLA DR3 transgenic)
# Details: ConA 2 μg/mL, positive control, consistent between arms
substance,measurement,setting,value
Concanavalin A [ConA],IFNγ concentration above background,highest of panel,260 pg/mL
same,IL-4 concentration above background,lowest of panel,16 pg/mL
